Experimental data: patent publication US20220127297A1, “Novel Antibacterial 3"-Derivatives Of 4,6-Disubstituted 2,5-Dideoxystreptamine Aminoglycoside Antibiotics” (AGILeBiotics B.V., priority 2018, published 2022)
Converted amounts (≈) assume the structure as drawn. Where two headings read alike, the source gives them in different places.

Legend:
[1] = system: clinical isolates of multidrug-resistant Klebsiella pneumoniae (and ATCC43816); experiment: MIC determination at Fidelta, clinical isolates; format: cell-based; settings: Klebsiella pneumoniae
Source text: (§1) 3.4.2 MIC Determination at Fidelta (Croatia)
(§2) Tested reference compounds. Amikacin sulfate (Cat. No. 01693, Chem-Impex), Gentamicin sulfate (Cat. No. G4918, Sigma Aldrich), Ceftazidime Pentahydrate (Cat. No. 1098130, USP), Meropenem (Cat. No. 1392454, USP), Tobramycin (Cat. No. 1667508, USP).
(§3) Microbial strains. Klebsiella pneumoniae KP-1919 (abdomen), Klebsiella pneumoniae KP-1935 (urine), Klebsiella pneumoniae KP-1936 (abscess), Klebsiella pneumoniae KP-1937 (blood), Klebsiella pneumoniae KP-1942 (urine), Klebsiella pneumoniae KP-1944 (blood), Klebsiella pneumoniae KP-2027 (tracheal aspirate), Klebsiella pneumoniae KP-2029 (urine), Klebsiella pneumoniae KP-2030 (trachea), Klebsiella pneumoniae KP-2031 (skin), Klebsiella pneumoniae KP-2032 (urine), Klebsiella pneumoniae KP-2033 (urine), Klebsiella pneumoniae KP-2034 (urine), Klebsiella pneumoniae KP-2035 (urine), Klebsiella pneumoniae KP-2036 (urine), Klebsiella pneumoniae KP-2037 (urine), Klebsiella pneumoniae ATCC 43816, Pseudomonas aeruginosa PA-1948 (wound), Pseudomonas aeruginosa PA-1949 (urine), Pseudomonas aeruginosa PA-1950 (sputum), Pseudomonas aeruginosa PA-1952 (wound), Pseudomonas aeruginosa PA-1953 (urine), Pseudomonas aeruginosa PA-1954 (sputum), Pseudomonas aeruginosa PA-1967 (blood), Pseudomonas aeruginosa ATCC27853, Acinetobacter baumannii AB-1931 (urine), Acinetobacter baumannii AB-1932 (urine), Acinetobacter baumannii AB-2017 (bronchial aspirate), Acinetobacter baumannii AB-2018 (skin), Acinetobacter baumannii AB-2019 (bronchial aspirate), Acinetobacter baumannii AB-1964 (blood), Acinetobacter baumannii AB-2025 (skin), Acinetobacter baumannii AB-2026 (skin), Acinetobacter baumannii ATCC17978, methicillin-resistant Staphylococcus aureus MRSA-1995 (liquor), methicillin-resistant Staphylococcus aureus MRSA-1998 (wound), methicillin-resistant Staphylococcus aureus MRSA-1999 (skin), methicillin-resistant Staphylococcus aureus MRSA-2003 (wound), vancomycin-resistant Enterococcus faecium VRE-2005 (urine), vancomycin-resistant Enterococcus faecium VRE-2006 (urine), vancomycin-resistant Enterococcus faecium VRE-2007 (urine), vancomycin-resistant Enterococcus faecium VRE-2008 (urine), vancomycin-resistant Enterococcus faecium VRE-2009 (urine), vancomycin-resistant Enterococcus faecium VRE-2010 (urine), vancomycin-resistant Enterococcus faecium VRE-2011 (rectum), vancomycin-resistant Enterococcus faecium VRE-2012 (rectum), vancomycin-resistant Enterococcus faecium VRE-2013 (rectum).
(§4) Culture media and equipment. BBL™ Mueller Hinton Broth (REF 275730, Lot. 7009699, Becton Dickinson); Mueller Hinton Agar 2 (Ref. No. 97580-500G-F, Lot. No. BCBV4646, Sigma); Cellstar, 96-well plates, U-bottom (Cat. No. 650180, Lot. No. E14123EB, Greiner Bio-one); 96-well deep well plate, 1 mL (Cat. No. 278606, Nunc); Incubator (Binder); Laminar flow (Thermo Scientific); BioPhotometer (Eppendorf); DEN-1B (McFarland Densitometer, Biosan); McFarland standards (polymer microparticle suspension, Biosan).
(§5) Compound preparation. For testing, 5 mg/mL DMSO solutions of the test compounds and reference antibiotics were used. Out of these DMSO solutions, 43.5 μL was transferred to 1656.5 μL of MH media in a deep well plate. Out of these working solutions 100 μL was transferred to wells in the third column of 96-well plates. Plates are previously filled with 50 μL of MH media in all wells except for the wells in the third column. After compound and antibiotic addition, 50 μL was transferred from the third to the fourth column, then from the fourth to the fifth and so on. In this manner, the compounds and antibiotics were plated in 96-well plate in serial two-fold dilutions giving a final concentration range of 64-0.125 μg/mL.
(§6) Inoculum preparation. Designations used for clinical isolates were from Fidelta strain collection bank. Microorganisms used were all revived from skim milk storage at −70° C. by plating them on MH agar plates.

[2] = system: clinical isolates of methicillin-resistant Staphylococcus aureus (MRSA); experiment: MIC determination at Fidelta, clinical isolates; format: cell-based
Source text: as §1, §2, §3, §4, §5, §6

[3] = system: clinical isolates of Vancomycin-resistant Enterococcus faecium (VRE); experiment: MIC determination at Fidelta, clinical isolates; format: cell-based
Source text: as §1, §2, §3, §4, §5, §6

[4] = system: Klebsiella pneumoniae ATCC 43816; experiment: Murine neutropenic thigh model of infection; format: in vivo, male CD-1 mice
Experimental: 4.1 Murine Neutropenic Thigh Model of Infection (Kiebsiella Pneumoniae ATCC 43816)
A comparator antibiotic (meropenem; Cat. No. 1392454, USP) was used during both studies.
During the first study ABX5006 and ABX5020 were tested at a dose of 64 mg/kg (group 5 for ABX5006, group 8 for ABX5020), 16 mg/kg (group 4 for ABX5006, group 7 for ABX5020) and of 4 mg/kg (group 3 for ABX5006, group 6 for ABX5020).
During a second study ABX5026 and ABX5039 were tested at a dose of 4 mg/kg (group 5 for ABX5026, group 8 for ABX5039), 1 mg/kg (group 4 for ABX5026, group 7 for ABX5039) and of 0.25 mg/kg (group 3 for ABX5026, group 6 for ABX5039).
Animals were dosed subcutaneously (10 mL/kg) twice with 8 h interval. […] A CFU count below limit of detection (LOD=1.0×10^2 CFU/mL) was substituted with the value 0 in order to perform statistical analysis.
Inoculum preparation for intramuscular infection. The strain was streaked out onto MH agar.

[5] = ATCC43816, KP-1919, Abdomen/VIM, ESBL
[6] = ATCC43816, KP-1935, Urine/ESBL, NDM
[7] = ATCC43816, KP-1936, Abscess/NDM
[8] = ATCC43816, KP-1937, Blood/VIM, ESBL
[9] = ATCC43816, KP-1942, Urine (catheter)/VIM
[10] = ATCC43816, KP-2027, Tracheal aspirate/ESBL, OXA-48, ColR
[11] = ATCC43816, KP-2029, Urine/ESBL, OXA-48
[12] = ATCC43816, KP-2030, Trachea/ESBL, OXA-48
[13] = ATCC43816, KP-2031, Skin/ESBL, OXA-48
[14] = ATCC43816, KP-2032, Urine/ESBL, OXA-48
[15] = ATCC43816, KP-2033, Urine/OXA-A8
[16] = ATCC43816, KP-2034, Urine/ESBL, OXA-48
[17] = ATCC43816, KP-2035, Urine/ESBL, OXA-48
[18] = ATCC43816, KP-2037, Urine/ESBL, OXA-48

SMILES | MIC90 [1, 5] | MIC90 [1, 6] | MIC90 [1, 7] | MIC90 [1, 8] | MIC90 [1, 9] | MIC90 ([1]; ATCC43816, KP-1944, Blood/NDM) | MIC90 [1, 10] | MIC90 [1, 11] | MIC90 [1, 12] | MIC90 [1, 13] | MIC90 [1, 14] | MIC90 [1, 15] | MIC90 [1, 16] | MIC90 [1, 17] | MIC90 ([1]; ATCC43816, KP-2036, Urine/ESBL) | MIC90 [1, 18] | MIC90 ([2]; MRSA-1995, Liquor) | MIC90 ([2]; MRSA-1998, Wound) | MIC90 ([2]; MRSA-1999, Skin) | MIC90 ([2]; MRSA-2003, Wound) | other results
CC(C)(O/N=C(\C(=O)N[C@@H]1C(=O)N2C(C(=O)[O-])=C(C[n+]3ccccc3)CS[C@H]12)c1csc(N)n1)C(=O)O [Ceftazidime, reference compound] | 64 µg/mL (≈ 117 µM) | > 64 µg/mL | > 64 µg/mL | > 64 µg/mL | > 64 µg/mL | > 64 µg/mL | > 64 µg/mL | > 64 µg/mL | > 64 µg/mL | > 64 µg/mL | > 64 µg/mL | > 64 µg/mL | > 64 µg/mL | > 64 µg/mL | > 64 µg/mL | > 64 µg/mL | > 64 µg/mL | > 64 µg/mL | > 64 µg/mL | > 64 µg/mL | MIC90 ([1]; ATCC43816, K. pneumoniae ATCC43816 strain, read-out: MIC 90): < 0.125 µg/mL; MIC90 ([3]; VRE-2005, Urine): > 64 µg/mL; MIC90 ([3]; VRE-2006, Urine): > 64 µg/mL; MIC90 ([3]; VRE-2007, Urine): > 64 µg/mL; MIC90 ([3]; VRE-2008, Urine): > 64 µg/mL; MIC90 ([3]; VRE-2009, Urine): > 64 µg/mL; MIC90 ([3]; VRE-2010, Urine): > 64 µg/mL; MIC90 ([3]; VRE-2011, Rectum): > 64 µg/mL; MIC90 ([3]; VRE-2012, Rectum): > 64 µg/mL; MIC90 ([3]; VRE-2013, Rectum): > 64 µg/mL
C[C@@H](O)[C@H]1C(=O)N2C(C(=O)O)=C(S[C@@H]3CN[C@H](C(=O)N(C)C)C3)[C@H](C)[C@H]12 [Meropenem, meropenem, reference compound] | 4 µg/mL (≈ 10.4 µM) | 32 µg/mL (≈ 83.4 µM) | > 64 µg/mL | 32 µg/mL (≈ 83.4 µM) | 64 µg/mL (≈ 167 µM) | > 64 µg/mL | 4 µg/mL (≈ 10.4 µM) | 4 µg/mL (≈ 10.4 µM) | 4 µg/mL (≈ 10.4 µM) | 2 µg/mL (≈ 5.22 µM) | 2 µg/mL (≈ 5.22 µM) | 16 µg/mL (≈ 41.7 µM) | 16 µg/mL (≈ 41.7 µM) | 2 µg/mL (≈ 5.22 µM) | 16 µg/mL (≈ 41.7 µM) | 2 µg/mL (≈ 5.22 µM) | 64 µg/mL (≈ 167 µM) | 8 µg/mL (≈ 20.9 µM) | 64 µg/mL (≈ 167 µM) | 8 µg/mL (≈ 20.9 µM) | MIC90 ([1]; ATCC43816): < 0.125 µg/mL; MIC90 ([3]; VRE-2005, Urine): > 64 µg/mL; MIC90 ([3]; VRE-2006, Urine): > 64 µg/mL; MIC90 ([3]; VRE-2007, Urine): > 64 µg/mL; MIC90 ([3]; VRE-2008, Urine): > 64 µg/mL; MIC90 ([3]; VRE-2009, Urine): > 64 µg/mL; MIC90 ([3]; VRE-2010, Urine): > 64 µg/mL; MIC90 ([3]; VRE-2011, Rectum): > 64 µg/mL; MIC90 ([3]; VRE-2012, Rectum): > 64 µg/mL; MIC90 ([3]; VRE-2013, Rectum): > 64 µg/mL; Change from vehicle group ([4]; Log CFU/g thigh, dose 100 mg/kg SC BID): −4.56; Avg. Log CFU/g thigh ([4]; dose 100 mg/kg SC BID, 24 h post infection): 4.95 Log CFU/g; Change from vehicle group ([4]; dose 100 mg/kg, SC, BID, Avg. Log CFU/g thigh vs vehicle): 8.17; Avg. Log CFU/g ([4]; dose 100 mg/kg, SC, BID, thigh, 24 hours post infection): 1.61 Log CFU/g; survival rate ([4]; first study, vehicle group 50% mortality): 100%
